How the values were obtained:
[1] = system: transient focal Middle Cerebral Artery Occlusion/Reperfusion model (MCAO/R model); experiment: Evaluation of the effect of preventing nerve damage: total infarct volume (TTC staining) in MCAO/R model; assay type: in vivo, male Sprague Dawley rat; conditions: SD rat, 50 mg/kg intraperitoneal once 10 minutes before MCAO/R; 1 hour ischemia, 24 hours blood reperfusion; vehicle group 40.48
Experimental: Besides the foresaid experimental groups, only pure solvent used was treated as vehicle group, and a sham group, which was not administrated with any compound or solvent or with nylon monofilament to cause obstruction and ischemia, was also included. In this test example, transient focal Middle Cerebral Artery Occlusion/Reperfusion model (MCAO/R model) was adopted to simulate ischemic stroke for evaluating the subsequent nerve damage. Specifically, male Sprague Dawley rat (SD rat) was adopted and anaesthetized with 2% isoflurane, and then the right common carotid artery, external carotid artery and internal carotid artery were distinguished among them from the neck. Next, a nylon monofilament with length of 22 millimeters (mm), size number of 4/0 and capped with polysiloxane was inserted into the external carotid artery and along with the […] to the circle of Willis to induce obstruction and ischemia in the middle cerebral artery. After causing obstruction and ischemia for 1 hour, the nylon monofilament was removed to allow the blood recirculated to the brain, in other words, to undergo blood reperfusion. After blood reperfusion for 24 hours, the rat was sacrificed and the brain thereof was placed into a cooled 0.95% saline. […] Afterward, the sliced brain tissues were stained with a 4% […] solution, and then MacroPATH Digital Imaging System was used to record the images and the obtained images were analyzed by ImageJ 1.52a to count the infarct volume percent, which could represent the degree of nerve damage. The foresaid infarct volume percent was obtained by adding the values acquired by multiplying the proportion of infarct area of each sliced brain tissue with their thickness, and the proportion of infarct area was calculated by the equation: (B−A)/B×100%; wherein, “A” represented the undamaged area in the damaged cerebral hemisphere on the right side, and “B” represented the total area of the undamaged cerebral hemisphere on the left side. […]

[2] = system: transient focal Middle Cerebral Artery Occlusion/Reperfusion model (MCAO/R model); experiment: Neurobehavioral evaluation (Bederson classification) after MCAO/R; conditions: Bederson Grade 0-4, SD rat, 50 mg/kg intraperitoneal, vehicle group 2.80

Structure (SMILES) | Total infarct volume percent (%) [1] [%] | Grade (neurobehavioral evaluation), time point of 0.5-hour after blood reperfusion [2] | Grade (neurobehavioral evaluation), time point of 1.5-hour after blood reperfusion [2] | Grade (neurobehavioral evaluation), time point of 24-hour after blood reperfusion ([2]; 24 hour after blood reperfusion)
COc1cc(CC=C(C)C)c(OC)c2c1OCO2 [Example 4] | 16.4 | 2.60 | 2.60 | –
COc1c(C)c(CC=C(C)C)c(OC)c2c1OCO2 [Example 1] | 28.82 | 2.60 | 2.80 | 2.60
COc1cc(COC(C)=O)c(OC)c2c1OCO2 [Example 3] | 17.13 | 2.80 | 2.60 | –
